US8962608B2, “Cycloalkylnitrile pyrazole carboxamides as janus kinase inhibitors” (Merck Sharp & Dohme Corp., priority 2011, dated 2015)

target: JAK2 (recombinant purified GST-tagged catalytic domain) (Homo sapiens (Human), UniProt O60674); assay: biochemical;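 note: biochemical JAK kinase assay with HTRF detection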
Sequence (O60674 849-1124): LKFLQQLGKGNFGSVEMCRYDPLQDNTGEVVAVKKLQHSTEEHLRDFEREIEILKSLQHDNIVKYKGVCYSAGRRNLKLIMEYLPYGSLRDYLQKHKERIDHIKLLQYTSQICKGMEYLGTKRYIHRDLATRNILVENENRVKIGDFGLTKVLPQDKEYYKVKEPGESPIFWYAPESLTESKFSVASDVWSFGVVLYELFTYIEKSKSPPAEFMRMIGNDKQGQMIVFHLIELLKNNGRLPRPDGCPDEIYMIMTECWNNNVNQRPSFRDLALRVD

IC50 | SMILES
103 nM | N#C[C@H]1C[C@@H](C(=O)NC2CCC2)CC[C@@H]1n1cc(C(N)=O)c(Nc2ccc(Cl)cc2)n1 (single isomer, unassigned) [Example 35-12, 3-[(4-chlorophenyl)amino]-1-[(1S,2S,4S or 1R,2R,4R)-2-cyano-4-(cyclobutylcarbamoyl)cyclohexyl]-1H-pyrazole-4-carboxamide]
83 nM | C[C@H](N[C@@H]1CC[C@H](n2cc(C(N)=O)c(Nc3ccc(S(=O)(=O)C(F)(F)F)cc3)n2)[C@@H](C#N)C1)C1CC1 (single isomer, unassigned) [Example 28-185, 1-[(1S,2S,4R or 1R,2R,4S)-2-cyano-4-{[(1S)-1-cyclopropylethyl]amino}cyclo-hexyl]-3-({4-[(trifluoromethyl)sulfonyl]phen-yl}amino)-1H-pyrazole-4-carboxamide]
23 nM | C[C@H](N[C@H]1CC[C@H](n2cc(C(N)=O)c(Nc3ccc(S(=O)(=O)C(F)(F)F)cc3)n2)[C@@H](C#N)C1)C1CC1 (single isomer, unassigned) [Example 28-184, 1-{(1S,2S,4S or 1R,2R,4R)-2-cyano-4-[(1-cyclopropylethyl)amino]cyclo-hexyl}-3-({4-[(trifluoromethyl)sulfonyl]phen-yl}amino)-1H-pyrazole-4-carboxamide]

target: JAK1 (recombinant purified GST-tagged catalytic domain) (Homo sapiens (Human), UniProt P23458); assay: biochemical;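 note: biochemical assay with HTRF read-out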
Sequence (P23458 875-1153): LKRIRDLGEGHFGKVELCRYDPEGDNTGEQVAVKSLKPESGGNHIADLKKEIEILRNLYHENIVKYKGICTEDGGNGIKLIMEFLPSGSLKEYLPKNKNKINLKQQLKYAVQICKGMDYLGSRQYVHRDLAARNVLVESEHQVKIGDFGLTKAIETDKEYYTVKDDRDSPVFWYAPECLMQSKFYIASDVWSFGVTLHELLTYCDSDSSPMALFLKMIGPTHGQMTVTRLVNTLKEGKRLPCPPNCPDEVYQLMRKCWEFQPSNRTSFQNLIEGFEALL

IC50 | SMILES
0.15 nM | CC(C)N[C@H]1CC[C@H](n2cc(C(N)=O)c(Nc3ccc(S(=O)(=O)C(F)(F)F)cc3)n2)[C@@H](C#N)C1 (single isomer, unassigned) [Example 28-174, 1-{(1S,2S,4S or 1R,2R,4R)-2-cyano-4-[(1-methylethyl)amino]cyclohexy}-3-({4-[(trifluoro-methyl)sulfonyl]phenyl}amino)-1H-pyrazole-4-carboxamide]
1 nM | N#C[C@H]1C[C@H](O)CC[C@@H]1n1cc(C(N)=O)c(Nc2ccc(Cl)c(F)c2)n1 (single isomer, unassigned) [Example 25-3, 3-[(4-chloro-3-fluorophenyl)amino]-1-[(1S,2S,4R or 1R,2R,4S)-2-cyano-4-hydroxycyclohexyl]-1H-pyrazole-4-carboxamide]
0.45 nM | N#C[C@H]1CCCCC1n1cc(C(N)=O)c(Nc2ccc3c(c2)C=CS3(=O)=O)n1 (mixture of isomers) [Example 17-63, 1-[(1S,2S and 1R,2R)-2-cyanocyclohexyl]-3-[(1,1-dioxido-1-benzothiophen-5-yl)amino]-1H-pyrazole-4-carboxamide]
5 nM | C[C@@]1(O)CC[C@H](n2cc(C(N)=O)c(Nc3ccc(Cl)c(F)c3)n2)[C@@H](C#N)C1 (single isomer, unassigned) [Example 32-7, 3-[(4-chloro-3-fluorophenyl)amino]-1-[(1S,2S,4R or 1R,2R,4S)-2-cyano-4-hydroxy-4-methylcyclohexyl]-1H-pyrazole-4-carboxamide]
15 nM | C[C@@H]1C[C@@H](C)N1[C@@H]1CC[C@H](n2cc(C(N)=O)c(Nc3ccc(C(F)(F)F)cc3)n2)[C@@H](C#N)C1 (single isomer, unassigned) [Example 28-30, 1-{(1S,2S,4R or 1R,2R,4S)-2-cyano-4-[(2R,4R or 2S,4S)-2,4-dimethylazetidin-1-yl]cyclohexyl}-3-{[4-(trifluoromethyl)phenyl]amino}-1H-pyrazole-4-carboxamide]
0.15 nM | N#C[C@@H]1CCCCC1n1cc(C(N)=O)c(Nc2ccc(S(=O)(=O)CC(F)(F)F)cc2)n1 (single isomer, unassigned) [Example 43-8, 1-[(1S,2S or 1R,2R)-2-cyanocyclohexyl]-3-({4-[(2,2,2-trifluoroethyl)sulfonyl]phenyl}amino)-1H-pyrazole-4-carboxamide]
2 nM | N#C[C@H]1C[C@@H](N2CC3(CCC3)C2)CC[C@@H]1n1cc(C(N)=O)c(Nc2ccc(C(F)(F)F)cc2)n1 (single isomer, unassigned) [Example 28-17, 1-[(1S,2S,4S or 1R,2R,4R)-4-(2-azaspiro[3.3]hept-2-yl)-2-cyanocyclohexyl]-3-{[4-(trifluoromethyl)phenyl]amino}-1H-pyrazole-4-carboxamide]
